Laboratory results reported in ChEMBL document CHEMBL1201862, “PubChem BioAssay data set” (2004).
Where a name gives a salt, the structure may show the parent alone.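 Cells were grown in 96-well plates and exposed to each compound for 48 hours at five concentrations; endpoints were interpolated linearly between bracketing concentrations, or set to the highest concentration if not reached. GI50: concentration for 50% inhibition of growth.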 Active and inactive are the calls of the source. Cut-off read from the data, not from the text of the source: active = GI50 up to about 1.1 µM and inactive = higher.

Columns and labels:
Test in all cases: DTP human tumour cell line panel, 48 h
786-0 = test system: 786-0
ACHN = test system: ACHN
HL-60 = test system: HL-60
HT-29 = test system: HT-29
K562 = test system: K562
KM12 = test system: KM12
M14 = test system: M14
MDA-N = test system: MDA-N
RXF 393 = test system: RXF 393
SF-295 = test system: SF-295
SK-MEL-28 = test system: SK-MEL-28
SK-MEL-5 = test system: SK-MEL-5
SNB-19 = test system: SNB-19
SNB-75 = test system: SNB-75
TK-10 = test system: TK-10
UACC-62 = test system: UACC-62
A498 = test system: A498
MOLT-4 = test system: MOLT-4
SF-539 = test system: SF-539
PC-3 = test system: PC-3

Row | Compound | GI50 (786-0) | GI50 (ACHN) | GI50 (HL-60) | GI50 (HT-29) | GI50 (K562) | GI50 (KM12) | GI50 (M14) | GI50 (MDA-N) | GI50 (RXF 393) | GI50 (SF-295) | GI50 (SK-MEL-28) | GI50 (SK-MEL-5) | GI50 (SNB-19) | GI50 (SNB-75) | GI50 (TK-10) | GI50 (UACC-62) | GI50 (A498) | GI50 (MOLT-4) | GI50 (SF-539) | GI50 (PC-3)
1 | N#Cc1sc2c(c1O)c(=O)n(-c1ccccc1)c(=S)n2-c1ccccc1 | > 100 µM (inactive) | > 100 µM (inactive) | > 100 µM (inactive) | > 100 µM (inactive) | 89.1 µM (inactive) | > 100 µM (inactive) | > 100 µM (inactive) | > 100 µM (inactive) | > 100 µM (inactive) | > 100 µM (inactive) | > 100 µM (inactive) | > 100 µM (inactive) | > 100 µM (inactive) | > 100 µM (inactive) | > 100 µM (inactive) | > 100 µM (inactive) | – | – | – | –
2 | COc1cccc2c1C(=O)c1c(O)c3c(c(O)c1C2=O)C[C@@](O)(C(=O)CO)CC3OC1CC(NCCCC(OC(C)=O)OC(C)=O)C(O)C(C)O1 (some centres undefined) | 0.00219 µM (active) | 0.00243 µM (active) | 0.00212 µM (active) | 0.000711 µM (active) | 0.000512 µM (active) | 0.00279 µM (active) | 0.000867 µM (active) | – | 0.00172 µM (active) | 0.00147 µM (active) | 0.00259 µM (active) | – | 0.00246 µM (active) | 0.0015 µM (active) | 0.00641 µM (active) | 0.000861 µM (active) | 0.0019 µM (active) | 0.00224 µM (active) | 0.00229 µM (active) | –
3 | COc1ccc2c(C)cc(N/N=C/c3ccc(OC)c4ccccc34)nc2c1 | 12.1 µM (inactive) | 4.48 µM (inactive) | 20.8 µM (inactive) | 7.82 µM (inactive) | 10.1 µM (inactive) | 13.2 µM (inactive) | 17.1 µM (inactive) | – | 16.7 µM (inactive) | 16.8 µM (inactive) | 16.1 µM (inactive) | 16.4 µM (inactive) | 18.8 µM (inactive) | 22.9 µM (inactive) | 17.3 µM (inactive) | 14.3 µM (inactive) | – | 3.97 µM (inactive) | 15.8 µM (inactive) | 16.9 µM (inactive)
4 | NC1=NC(c2ccccc2)CC(c2cc(Cl)cc(Br)c2O)=N1 (centres undefined) | 16.9 µM (inactive) | 16.9 µM (inactive) | 3.28 µM (inactive) | 13.5 µM (inactive) | 3 µM (inactive) | 11 µM (inactive) | 14.7 µM (inactive) | – | 4.36 µM (inactive) | 10.9 µM (inactive) | 13.1 µM (inactive) | 11.7 µM (inactive) | 17 µM (inactive) | 14 µM (inactive) | 18.8 µM (inactive) | 10.1 µM (inactive) | 16.4 µM (inactive) | 3.1 µM (inactive) | 12.2 µM (inactive) | –
5 | C[C@]12CCc3nonc3C1CC[C@@H]1C2CC[C@]2(C)C(=O)CCC12 (some centres undefined) | > 100 µM (inactive) | 74 µM (inactive) | 15.5 µM (inactive) | 17.2 µM (inactive) | 33.7 µM (inactive) | 20.9 µM (inactive) | 64.9 µM (inactive) | – | 35.2 µM (inactive) | 26.3 µM (inactive) | > 10 µM (inactive) | 17.5 µM (inactive) | 81.1 µM (inactive) | 28.8 µM (inactive) | > 10 µM (inactive) | 21.7 µM (inactive) | 22.9 µM (inactive) | 22.4 µM (inactive) | 20.9 µM (inactive) | –
6 | COc1cc(OC)c2c(O)cc(CC(C)O)cc2c1 (centres undefined) | > 100 µM (inactive) | > 100 µM (inactive) | 78.9 µM (inactive) | 92.5 µM (inactive) | > 100 µM (inactive) | > 100 µM (inactive) | > 100 µM (inactive) | – | > 100 µM (inactive) | > 100 µM (inactive) | > 100 µM (inactive) | > 100 µM (inactive) | > 100 µM (inactive) | > 100 µM (inactive) | > 100 µM (inactive) | > 100 µM (inactive) | > 100 µM (inactive) | > 100 µM (inactive) | > 100 µM (inactive) | –
7 | COc1ccc(/C=C\c2cc(OC)c(OC)c(OC)c2)c(O)c1O [COMBRETASTATIN A-1] | 0.69 µM (active) | 0.203 µM (active) | 0.0698 µM (active) | 7.03 µM (inactive) | 0.05 µM (active) | 0.0658 µM (active) | 0.0953 µM (active) | < 0.01 µM (active) | – | 0.05 µM (active) | 5.41 µM (inactive) | 0.05 µM (active) | – | 1.31 µM (inactive) | 2.92 µM (inactive) | 0.0394 µM (active) | – | 0.0785 µM (active) | – | < 0.0103 µM (active)
8 | COc1ccc(Cc2nc3cc(C(F)(F)F)ccc3n2CCCN(C)C)cc1 | – | 27.2 µM (inactive) | 11.8 µM (inactive) | 18.5 µM (inactive) | 14.4 µM (inactive) | 16.7 µM (inactive) | 14.7 µM (inactive) | – | 14.7 µM (inactive) | 19.7 µM (inactive) | 18 µM (inactive) | 16.2 µM (inactive) | 27.6 µM (inactive) | – | 20.7 µM (inactive) | 17.7 µM (inactive) | 17.3 µM (inactive) | 2.27 µM (inactive) | – | 22.9 µM (inactive)
9 | CN1CCCS/C1=C1/SC(=S)N(c2ccccc2)C1=O | > 100 µM (inactive) | > 100 µM (inactive) | > 100 µM (inactive) | > 100 µM (inactive) | > 100 µM (inactive) | > 100 µM (inactive) | > 100 µM (inactive) | – | > 100 µM (inactive) | > 100 µM (inactive) | > 100 µM (inactive) | > 100 µM (inactive) | > 100 µM (inactive) | > 100 µM (inactive) | > 100 µM (inactive) | > 100 µM (inactive) | > 100 µM (inactive) | > 100 µM (inactive) | > 100 µM (inactive) | –
10 | CCC1=CC2CN3CCc4c([nH]c5ccccc45)C(C(=O)OC)(C2)C13 (centres undefined) | – | – | 36.7 µM (inactive) | 22.7 µM (inactive) | 39.2 µM (inactive) | 20 µM (inactive) | – | – | 35.7 µM (inactive) | 45.2 µM (inactive) | 53.3 µM (inactive) | 40.7 µM (inactive) | 46 µM (inactive) | 48.4 µM (inactive) | – | 37.8 µM (inactive) | 48.1 µM (inactive) | 39.8 µM (inactive) | 50.9 µM (inactive) | –
11 | CC[C@@]1(O)C(=O)OCc2c1cc1n(c2=O)Cc2cc3c(CN(C)C)c(O)ccc3nc2-1 [TOPOTECAN HYDROCHLORIDE] | – | 0.0237 µM (active) | 0.0268 µM (active) | 0.132 µM (active) | 0.0592 µM (active) | 0.518 µM (active) | – | – | 0.0395 µM (active) | 0.0148 µM (active) | 0.239 µM (active) | 0.0325 µM (active) | 0.0179 µM (active) | 0.0215 µM (active) | – | – | 0.11 µM (active) | 0.0125 µM (active) | 0.0168 µM (active) | 0.0771 µM (active)
12 | O=C(CCC(=O)Nc1ccc(Cl)c(Cl)c1)CC(=O)c1ccc2ccccc2c1 | > 100 µM (inactive) | 39.8 µM (inactive) | > 100 µM (inactive) | 93.8 µM (inactive) | 17.1 µM (inactive) | 82 µM (inactive) | > 100 µM (inactive) | – | > 100 µM (inactive) | > 100 µM (inactive) | > 100 µM (inactive) | > 100 µM (inactive) | > 100 µM (inactive) | 26.3 µM (inactive) | > 100 µM (inactive) | 17.2 µM (inactive) | > 100 µM (inactive) | 48.3 µM (inactive) | > 100 µM (inactive) | –
13 | NC(CCCNc1ccc(O)cc1)C(=O)O (centres undefined) | 17.2 µM (inactive) | 26 µM (inactive) | 19.8 µM (inactive) | 41.7 µM (inactive) | 35.4 µM (inactive) | 49.2 µM (inactive) | 31.8 µM (inactive) | – | 26.1 µM (inactive) | > 100 µM (inactive) | 42.6 µM (inactive) | 25.8 µM (inactive) | > 100 µM (inactive) | 42.5 µM (inactive) | > 63.2 µM (inactive) | 18.5 µM (inactive) | 41.3 µM (inactive) | 25.4 µM (inactive) | 35.2 µM (inactive) | –
14 | NNc1[nH]c(=S)[nH]c1C(N)=O | > 100 µM (inactive) | – | > 100 µM (inactive) | > 100 µM (inactive) | – | > 100 µM (inactive) | > 100 µM (inactive) | – | > 100 µM (inactive) | > 100 µM (inactive) | > 100 µM (inactive) | > 100 µM (inactive) | – | > 100 µM (inactive) | > 100 µM (inactive) | > 100 µM (inactive) | > 100 µM (inactive) | > 100 µM (inactive) | > 100 µM (inactive) | > 100 µM (inactive)
15 | Cn1cc2ccccc2c1-c1nc(F)nc(Nc2ccc(N)cc2)n1 | 22.3 µM (inactive) | 23.3 µM (inactive) | 22.3 µM (inactive) | 21.5 µM (inactive) | 8.63 µM (inactive) | 14 µM (inactive) | 13.6 µM (inactive) | – | 15.3 µM (inactive) | 16.2 µM (inactive) | 15.5 µM (inactive) | 11.5 µM (inactive) | 29.3 µM (inactive) | 11.9 µM (inactive) | 34.3 µM (inactive) | – | 6.93 µM (inactive) | 17.5 µM (inactive) | 15.8 µM (inactive) | –
16 | COc1ccc(Sc2ccccc2[N+](=O)[O-])cc1 | – | – | 3.78 µM (inactive) | 4.62 µM (inactive) | 3.32 µM (inactive) | 6.44 µM (inactive) | 4.04 µM (inactive) | – | 10.2 µM (inactive) | > 10 µM (inactive) | 5.28 µM (inactive) | 45.9 µM (inactive) | > 100 µM (inactive) | 3.67 µM (inactive) | 34.8 µM (inactive) | 7.87 µM (inactive) | 50.7 µM (inactive) | 16.1 µM (inactive) | 26 µM (inactive) | –
